Values of other authors as cited in article PMC10675484, “Characterization and Pharmacokinetic Assessment of a New Berberine Formulation with Enhanced Absorption In Vitro and in Human Volunteers” (Pharmaceutics, 2023).
Read-outs that look alike come from different tables or passages of the source.

What was measured:
[1] = not given; remark: listed apart in the source
[2] = not given; remark: listed apart in the source
[3] = parameters: method as in PMID 26851175; settings: orally administered berberine
[4] = 500 mg berberine, within a 2 h period
[5] = 20 study participants, oral 400 mg of berberine
[6] = human volunteers, doses similar to the current study

SMILES: COc1ccc2cc3[n+](cc2c1OC)CCc1cc2c(cc1-3)OCO2 [BCl]
- Biopharmaceutical Classification System class: class III
- Solubility in water: approximately 1.3 mg/mL

SMILES: COc1ccc2c(c1OC)CN1CCc3cc4c(cc3C1=C2)OCO4 [DHB, dihydroberberine]
- Glucose and insulin response ([1]; study participants, during the study period): no significant changes

SMILES: COc1ccc2cc3[n+](cc2c1OC)CCc1cc2c(cc1-3)OCO2 [berberine, 2,3-methylenedioxy-9,10-dimethoxy-protoberberine]
- Absolute bioavailability ([2]; oral administration in rats, ref 23, 24): < 1%
- Absolute bioavailability ([2]; oral administration in rats, ref 24): 0.68%
- Absorption rate in the gut ([2]; oral administration in rats, ref 25): approx. 33.6%
- AUC in the liver relative to plasma ([2]; orally administered berberine 200 mg/kg): 10 fold
- AUC (berberine) [1, 4]: 42.3 ± 17.6 ng·h/mL
- Cmax (berberine) [1, 4]: 0.4 ± 0.17 ng/mL
- Cmax ([1]; 500 mg of berberine in 10 volunteers): 0.07 nM
- Mean AUC0–∞ [1, 5]: ~9.2 ng·h/mL
- Mean Cmax [1, 5]: approx. 0.4 ng/mL
- Fraction of orally administered dose entering the systemic circulation ([1]; human pharmacokinetic studies): ≤ 5%
- AUC (total berberine) [1, 6]: 1.217 ± 0.129 ng·h/mL
- Cmax (total berberine) [1, 6]: 0.31688 ± 0.0266 ng/mL
- Elimination half-life ([1]; oral administration in humans): 2.94 ± 0.14 h
- Fraction metabolized in the enterocytes [3]: approx. 43.5%
